What all share (assay type): functional, cell-based
Experiment [1] has as its target T1, Glucagon-like peptide 1 receptor (Homo sapiens, UniProt P43220). Briefly: Agonist activity at human GLP-1R expressed in HEK293 cells incubated for 30 mins and assessed as increase in cAMP accumulation measured by HTRF assay. (Cyclic AMP is a second messenger, typically raised through Gs and lowered through Gi signalling.)
For experiment [2], the target named is T1, Glucagon-like peptide 1 receptor. Briefly: Agonist activity at human GLP-1R expressed in HEK293 cells incubated for 30 mins and assessed as increase in cAMP accumulation measured by HTRF assay relative to control. More on the design: concentration or dose not given beside the values.
Another experiment deals with Glucagon receptor (Homo sapiens, UniProt P47871). Briefly: Agonist activity at human GCGR expressed in HEK293 cells incubated for 30 mins and assessed as increase in cAMP accumulation measured by HTRF assay.

Where a SMILES comes first, the peptide text is derived from it. [ ]: non-standard residue; d: D form. ξ: configuration not given here. Thr(3ξ) = CC(O)[C@H](N)C(=O)O; Aib = CC(C)(N)C(=O)O A value given as a limit tells only on which side of the number the result lay.

Glucagon receptor, sequence (P47871 whole entry): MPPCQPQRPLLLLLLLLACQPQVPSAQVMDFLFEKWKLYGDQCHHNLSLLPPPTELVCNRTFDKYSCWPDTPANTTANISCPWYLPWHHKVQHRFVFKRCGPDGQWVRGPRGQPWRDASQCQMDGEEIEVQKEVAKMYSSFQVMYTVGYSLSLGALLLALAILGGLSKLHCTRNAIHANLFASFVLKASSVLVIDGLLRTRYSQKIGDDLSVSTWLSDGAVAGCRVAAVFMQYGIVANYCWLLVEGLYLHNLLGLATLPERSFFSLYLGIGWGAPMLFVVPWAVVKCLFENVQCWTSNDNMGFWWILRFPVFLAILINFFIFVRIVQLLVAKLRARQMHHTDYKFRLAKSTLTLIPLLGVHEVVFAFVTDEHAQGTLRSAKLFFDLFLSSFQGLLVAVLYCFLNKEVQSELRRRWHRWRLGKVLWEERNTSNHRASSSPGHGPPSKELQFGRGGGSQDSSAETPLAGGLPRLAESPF
T1 sequence (P43220 whole entry): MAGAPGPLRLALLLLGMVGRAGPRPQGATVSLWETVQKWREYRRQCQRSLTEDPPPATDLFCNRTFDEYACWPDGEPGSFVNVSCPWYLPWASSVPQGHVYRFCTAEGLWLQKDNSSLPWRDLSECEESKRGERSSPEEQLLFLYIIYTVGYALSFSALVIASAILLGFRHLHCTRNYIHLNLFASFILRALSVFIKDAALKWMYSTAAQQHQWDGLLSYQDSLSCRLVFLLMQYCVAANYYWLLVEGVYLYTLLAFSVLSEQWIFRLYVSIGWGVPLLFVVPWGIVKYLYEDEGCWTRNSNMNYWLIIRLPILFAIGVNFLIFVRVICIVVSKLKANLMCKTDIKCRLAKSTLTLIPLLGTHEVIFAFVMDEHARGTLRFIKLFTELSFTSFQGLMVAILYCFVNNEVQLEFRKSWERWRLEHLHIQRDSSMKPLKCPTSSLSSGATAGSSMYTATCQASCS

In the case of “H-HSQGTYTNDVTEYLDSRRAQDFIEWLKNGGPSSGAPPPS-NH2”, the EC50 in experiment [1] worked out at 0.22 nM; on Glucagon receptor it was 39 nM. In addition, the Activity in experiment [2] turned out to be 18.6%.

On to `CCCCCCCCCCCCCCCC(=O)N[C@H](CCC(=O)NCCCC[C@H](NC(=O)[C@H](CO)NC(=O)[C@@H](NC(=O)[C@H](CC(=O)O)NC(=O)[C@H](CC(N)=O)NC(=O)[C@@H](NC(=O)[C@H](Cc1ccc(O)cc1)NC(=O)[C@@H](NC(=O)CNC(=O)[C@H](CCC(N)=O)NC(=O)[C@@H](CO)NC(=O)[C@@H](N)Cc1c[nH]cn1)[C@@H](C)O)[C@@H](C)O)C(C)C)C(=O)N[C@@H](Cc1ccc(O)cc1)C(=O)N[C@@H](CC(C)C)C(=O)N[C@@H](CC(=O)O)C(=O)N[C@@H](CO)C(=O)N[C@@H](CCCNC(=N)N)C(=O)N[C@@H](CCCNC(=N)N)C(=O)N[C@@H](C)C(=O)N[C@@H](CCC(N)=O)C(=O)N[C@@H](CC(=O)O)C(=O)N[C@@H](Cc1ccccc1)C(=O)N[C@H](C(=O)N[C@@H](CCC(=O)O)C(=O)N[C@@H](Cc1c[nH]c2ccccc12)C(=O)N[C@@H](CC(C)C)C(=O)N[C@@H](CCCCN)C(=O)N[C@@H](CC(N)=O)C(=O)NCC(=O)NCC(=O)N1CCC[C@H]1C(=O)N[C@@H](CO)C(=O)N[C@@H](CO)C(=O)NCC(=O)N[C@@H](C)C(=O)N1CCC[C@H]1C(=O)N1CCC[C@H]1C(=O)N1CCC[C@H]1C(=O)N[C@@H](CO)C(N)=O)[C@@H](C)CC)C(=O)O`, for which the EC50 in experiment [1] (hek293) was found to be 0.051 nM. In addition, in experiment [2] (filed as agonist), the Activity stood at 80.4%.

Consider “H-HSQGTYTNDVSKYLDSRRAQDFIEWLIKGKPSSGAPPPS-NH2”, for which the EC50 turned out to be 0.24 nM in experiment [1] and 0.85 nM at Glucagon receptor. Besides, the Activity in experiment [2] was determined as 17.1%.

For the molecule `CC[C@H](C)[C@H](NC(=O)[C@H](Cc1ccccc1)NC(=O)[C@H](CC(=O)O)NC(=O)[C@H](CCC(N)=O)NC(=O)[C@H](C)NC(=O)[C@H](CCCNC(=N)N)NC(=O)[C@H](CCCNC(=N)N)NC(=O)[C@H](CO)NC(=O)[C@H](CC(=O)O)NC(=O)[C@H](CC(C)C)NC(=O)[C@H](Cc1ccc(O)cc1)NC(=O)[C@H](CCCCN)NC(=O)[C@H](CO)NC(=O)[C@@H](NC(=O)[C@H](CC(=O)O)NC(=O)[C@H](CC(N)=O)NC(=O)[C@@H](NC(=O)[C@H](Cc1ccc(O)cc1)NC(=O)[C@@H](NC(=O)CNC(=O)[C@H](CCC(N)=O)NC(=O)[C@H](CO)NC(=O)[C@@H](N)Cc1c[nH]cn1)[C@@H](C)O)[C@@H](C)O)C(C)C)C(=O)N[C@@H](CCC(=O)O)C(=O)N[C@@H](Cc1c[nH]c2ccccc12)C(=O)N[C@@H](CC(C)C)C(=O)N[C@@H](CCSC)C(=O)N[C@@H](CC(N)=O)C(=O)N[C@H](C(N)=O)C(C)O` (stereo partly specified) (H-HSQGTYTNDVSKYLDSRRAQDFIEWLMN[Thr(3ξ)]-NH2), the results for the concentration giving a half-maximal response (EC50) (in experiment [1]; at Glucagon receptor) were 0.68 nM and 0.41 nM, respectively. Moreover, the Activity in experiment [2] is 6%.

For “H-HSQGTYTNDVTEYLDSRRAQDFIEWLIKGKPSSGAPPPS-NH2”, the values for the half-maximal effective concentration (EC50) (in experiment [1]; at Glucagon receptor) were 0.45 nM and 1.3 nM, respectively. In addition, the Activity in experiment [2] stood at 9.1%.

As for H-HSQGTYTNDVTEYLDSRRAQEFIEWLIKGK-NH2, the EC50 was determined as 0.16 nM in experiment [1] and 2.7 nM at Glucagon receptor. For the same molecule, the Activity in experiment [2] was 25.6%.

Consider `CC[C@H](C)[C@H](NC(=O)[C@H](CC(C)C)NC(=O)[C@H](Cc1c[nH]c2ccccc12)NC(=O)[C@H](CCC(=O)O)NC(=O)[C@@H](NC(=O)[C@H](Cc1ccccc1)NC(=O)[C@H](CCC(=O)O)NC(=O)[C@H](CCCCN)NC(=O)[C@H](C)NC(=O)[C@H](C)NC(=O)[C@H](CCC(=O)O)NC(=O)[C@H](CCC(=O)O)NC(=O)[C@H](CCC(=O)O)NC(=O)[C@H](CC(C)C)NC(=O)[C@H](Cc1ccc(O)cc1)NC(=O)[C@H](CCC(=O)O)NC(=O)[C@@H](NC(=O)[C@@H](NC(=O)[C@H](CC(=O)O)NC(=O)[C@H](CC(N)=O)NC(=O)[C@@H](NC(=O)[C@H](Cc1ccc(O)cc1)NC(=O)[C@@H](NC(=O)CNC(=O)[C@H](CCC(=O)O)NC(=O)C(C)(C)NC(=O)[C@@H](N)Cc1c[nH]cn1)[C@@H](C)O)[C@@H](C)O)C(C)C)[C@@H](C)O)[C@@H](C)CC)C(=O)N[C@@H](CCCCN)C(=O)NCC(=O)N[C@@H](CCCCN)C(N)=O` (H-H[Aib]EGTYTNDVTEYLEEEAAKEFIEWLIKGK-NH2), for which the figures for the EC50 (in experiment [1]; on Glucagon receptor) were 0.041 nM and > 1000 nM, respectively. Also, in experiment [2] (filed as agonist), the Activity was 100%.

As for “H-HSQGTYTNDVTQYLDSRRAQQFIEWLMNTKRNRNNIA-NH2”, the EC50 was 0.62 nM in experiment [1] and 0.93 nM on Glucagon receptor. For the same molecule, the Activity in experiment [2] worked out at 6.6%.

In the case of “H-HSQGTYTNDVSKYLDSRRAQQFIEWLMNTKRNRNNIA-NH2”, the figures for the EC50 (in experiment [1]; on Glucagon receptor) were 0.57 nM and 0.42 nM, respectively. Besides, in experiment [2], the Activity is 7.2%.

As to H-HSQGTYTNDVTEYLDSRRAQDFIEWLIKGK-NH2, the values for the EC50 (in experiment [1]; on Glucagon receptor) were 0.12 nM and 2.6 nM, respectively. For the same molecule, the Activity in experiment [2] was determined as 34.2%.

Consider `CCCCCCCCCCCCCCCC(=O)N[C@@H](CCC(=O)NCCCC[C@H](NC(=O)[C@H](CO)NC(=O)[C@@H]1CCCN1C(=O)[C@@H]1CCCN1C(=O)[C@@H]1CCCN1C(=O)[C@H](C)NC(=O)CNC(=O)[C@H](CO)NC(=O)[C@H](CO)NC(=O)[C@@H]1CCCN1C(=O)CNC(=O)CNC(=O)[C@H](CC(N)=O)NC(=O)[C@H](CCCCN)NC(=O)[C@H](CC(C)C)NC(=O)[C@H](Cc1c[nH]c2ccccc12)NC(=O)[C@H](CCC(=O)O)NC(=O)[C@@H](NC(=O)[C@H](Cc1ccccc1)NC(=O)[C@H](CC(=O)O)NC(=O)[C@H](CCC(N)=O)NC(=O)[C@H](C)NC(=O)[C@H](CCCNC(=N)N)NC(=O)[C@H](CCCNC(=N)N)NC(=O)[C@H](CO)NC(=O)[C@H](CC(=O)O)NC(=O)[C@H](CC(C)C)NC(=O)[C@H](Cc1ccc(O)cc1)NC(=O)[C@H](CCCCN)NC(=O)[C@H](CO)NC(=O)[C@@H](NC(=O)[C@H](CC(=O)O)NC(=O)[C@H](CC(N)=O)NC(=O)[C@@H](NC(=O)[C@H](Cc1ccc(O)cc1)NC(=O)[C@@H](NC(=O)CNC(=O)[C@H](CCC(N)=O)NC(=O)[C@@H](CO)NC(=O)[C@@H](N)Cc1c[nH]cn1)[C@@H](C)O)[C@@H](C)O)C(C)C)[C@@H](C)CC)C(N)=O)C(=O)O`, for which the EC50 was 0.086 nM in experiment [1] and 0.28 nM on Glucagon receptor. In addition, the Activity in experiment [2] (filed as agonist) is 47.7%.

On to H-HSQGTYTNDVSKYLDSRRAQDFIEWLIKG-NH2, for which the EC50 in experiment [1] turned out to be 0.56 nM; on Glucagon receptor, 1.9 nM. Further, in experiment [2], the Activity stood at 7.3%.

Consider H-HSQGTYTNDVSKYLDSRRAQDFIEWLIKGK-NH2, for which the 50% effective concentration (EC50) in experiment [1] turned out to be 0.14 nM; on Glucagon receptor, 1.3 nM. Moreover, the Activity in experiment [2] turned out to be 29.3%.

Take “H-HSQGTYTNDVSKYLDSRRAQDFIEWLIKGKRNRNNIA-NH2”: the EC50 in experiment [1] amounted to 0.078 nM; on Glucagon receptor, 0.28 nM. In addition, the Activity in experiment [2] (filed as agonist) came to 52.6%.

The EC50 is the concentration at which the effect is half-maximal.

These data come from ChEMBL document CHEMBL5214890 (Eur J Med Chem, 2021).
